These results are taken from PubChem BioAssay AID2060499 (Molecular Pharmacology Branch, DTP, NCI, 2025).

The subject of the test is 777334-354-R2-J4-PDC tumor spheroids with HUVEC/MSC, viability. In words: Anticancer human tumor 777334-354-R2-J4-PDC patient-derived pancreatic adenocarcinoma cell line growth inhibition [GQUAD]. Conditions: for viability, T/C: stronger effect = lower value. From the text:
DNA G-quadruplex Stabilizer Agents in Combinations in Complex Spheroids
A high-throughput screen of multi-cell type tumor spheroids was designed to identify active combinations of DNA G-quadruplex stabilizer agents and targeted small molecules. Complex spheroids include a stromal component modeled by human endothelial cells (HUVEC) and fibroblasts modeled by human mesenchymal stem cells (MSCs). The concentration ranges selected for each drug and investigational agent were based upon clinically achievable concentrations if the clinical Cmax of the agent was known.
Compounds. The drugs and investigational agents: pidnarulex (CX-5461; NSC782164), APTO-253 (NSC789042), BRACO-19 (NSC847499), peposertib (NSC802822), ceralasertib (NSC780249), elimusertib (NSC800525), camonsertib (NSC841442), AZD-1390 (NSC803789), olaparib (NSC753686), talazoparib (NSC767125), ART-558 (NSC835418), sotorasib (NSC818433), MRTX-1133 (NSC836407), SN-38 (NSC673596), topotecan (NSC609699), etoposide (NSC141540), doxorubicin (NSC123127), gemcitabine (NSC613327), 5-fluorouracil (NSC19893), paclitaxel (NSC125973), vemurafenib (NSC761431), panobinostat (NSC761190), R-306465 (JNJ-16241199; NSC773264), adavosertib (NSC754352), TP-3654 (NSC805149), carboplatin (NSC241240), KSQ-4279 (NSC840948), and staurosporine (NSC755774) were obtained from the National Cancer Institute (NCI) Developmental Therapeutics Program Chemical Repository (34). The FDA-approved anticancer drug set is available from the NCI Developmental Therapeutics Program. […] The stock solutions were prepared in dimethyl sulfoxide (DMSO, Sigma-Aldrich, St. Louis, MO, cat. D2650) at 800-fold the tested concentration and stored at -70 degrees C prior to their use. All drugs and investigational agents were tested over a range starting from a high concentration at or near the clinical Cmax and decreasing in half-log increments. If the clinical Cmax for an agent had not been determined, the highest concentration tested was 10 microM.
2.3 Cell Culture. All cells were maintained in an incubator at 37 degrees C and 5% CO2 with 95% humidity. The PDC lines were cultured according to standard operating procedures established by the NCI PDMR. All PDCs were thawed and cultured in Matrigel-coated flasks prepared with a working solution of 1X Ham's F-12 nutrient mix, without supplementation (Invitrogen, cat. 11765054), 100 U/mL penicillin-streptomycin (Invitrogen, cat. 15140122), and 2.5% Matrigel (Corning Inc., cat. 354248) for the first three passages. The 857933-349-R-J2-PDC line was cultured in 6C/Colon 1B media, which includes advanced DMEM/F-12 (Thermo Fisher Scientific, cat. 12634028), 10 mM HEPES (Thermo Fisher Scientific, cat. 15630080), 1X GlutaMAX supplement (Thermo Fisher Scientific, cat. 35050061), 0.1 mg/mL primocin (InvivoGen, cat. ant-pm-2), 10% defined fetal bovine serum, heat inactivated (HyClone Laboratories Inc., cat. SH30070.03HI), 50% L-WRN conditioned media (ATCC, cat. CRL-3276), 1.25 mM N-Acetyl-L-cysteine (Sigma-Aldrich, cat. A9165), 10 mM nicotinamide (Sigma-Aldrich, cat. N0636), 1X B-27 supplement (Thermo Fisher Scientific, cat. 17504044), 1X N-2 supplement (Thermo Fisher Scientific, cat. 17502048), 10 microM Y-27632 dihydrochloride (Tocris Bioscience, cat. 1254), and 50 ng/mL human EGF recombinant protein (Thermo Fisher Scientific, cat. PHG0311). The 485176-168-R4-J1-PDC line was cultured in Panc media, which includes all 6C/Colon 1B media components plus 100 ng/mL human FGF-10 (Thermo Fisher Scientific, cat. 100-26), 500 nM SB-431542 (Selleckchem, cat. S1067), and gastrin (Tocris, cat. 3006).
[…]

“And” between values parts separate entries of the source, which are not always exact repeats. Equal values may be shown once.
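Further: spheroids exposed to compounds for 7 days before readout.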

Regarding `C=CC(=O)N1CCN(c2nc(=O)n(-c3c(C)ccnc3C(C)C)c3nc(-c4c(O)cccc4F)c(F)cc23)C(C)C1` (stereo not given), the viability, T/C by setting is: (compound 0.0316 µM) 87.7% and 105% and 106%; (compound 0.1 µM) 103% and 97.4% and 81.4%; (compound 0.316 µM) 95.8% and 89.4% and 109%; (compound 1 µM) 96.2% and 111% and 105%; (compound 3.16 µM) 113% (2×) and 100%; (compound 10 µM) 115% and 100% and 101%. The IC50 (curve of compound) was above 10000 nM.

With `CC(=O)O[C@H]1C(=O)[C@@]2(C)[C@H]([C@H](OC(=O)c3ccccc3)[C@]3(O)C[C@H](OC(=O)[C@H](O)[C@@H](NC(=O)c4ccccc4)c4ccccc4)C(C)=C1C3(C)C)[C@]1(OC(C)=O)CO[C@@H]1C[C@@H]2O`, the viability, T/C is 78.3% and 74% and 80.3% (compound 0.0316 µM); 61.3% and 56% and 57.1% (compound 0.1 µM); 47.8% and 50% and 43.4% (compound 0.316 µM); 46% and 46.2% and 44.1% (compound 1 µM); 45.2% and 46.1% and 39.9% (compound 3.16 µM); 47.9% and 45% and 51.3% (compound 10 µM). In addition, the IC50 (curve of compound) is 260 nM and 276 nM and 193 nM.

As for `CC(C)n1c(=O)n(C)c2cnc3cc(F)c(-c4ccc(OCCCN5CCCCC5)nc4)cc3c21`, the viability, T/C is 105% and 94.1% and 104% (compound 0.0316 µM); 106% and 95% and 101% (compound 0.1 µM); 113% (2×) and 111% (compound 0.316 µM); 104% and 99.3% and 108% (compound 1 µM); 110% and 98.5% and 112% (compound 3.16 µM); 101% and 94.6% and 86.2% (compound 10 µM). For the same molecule, the IC50 (curve of compound) was above 10000 nM.

As to `CC1COCCN1c1cc(-c2ccnn2C)c2ccnc(-c3ccn[nH]3)c2n1` (stereo not given), the viability, T/C is 94.2% and 88.2% and 75% (compound 0.0316 µM); 73.7% and 75.3% and 83.1% (compound 0.1 µM); 65.4% and 62.4% and 50.8% (compound 0.316 µM); 47.7% and 49.3% and 49.1% (compound 1 µM); 37.1% and 41.5% and 48.4% (compound 3.16 µM); 26.8% and 33.3% and 28.8% (compound 10 µM). In addition, under “curve of compound”, the IC50 was 901 nM and 1020 nM and 1110 nM.

Regarding `CC1COCCN1c1cc(C2(O)CC3CCC(C2)O3)c2cnn(-c3ccn[nH]3)c2n1` (stereo not given), the viability, T/C is 93.3% and 104% and 95% (compound 0.0316 µM); 76.1% and 79.5% and 78.4% (compound 0.1 µM); 52.4% and 54.4% and 51.5% (compound 0.316 µM); 39.1% and 38.5% and 37.8% (compound 1 µM); 30.1% and 36.1% and 34.6% (compound 3.16 µM); 20.1% and 19.8% and 21.7% (compound 10 µM). The IC50 (curve of compound) was 447 nM and 516 nM and 435 nM.

For `CC1COCCN1c1cc(C2(S(C)(=N)=O)CC2)nc(-c2ccnc3[nH]ccc23)n1` (stereo not given), the viability, T/C (compound 0.0316 µM) was 112% and 90.9% and 98.4%; the viability, T/C (compound 0.1 µM) is 106% (2×) and 86.8%; the viability, T/C (compound 0.316 µM) is 105% and 99.7% and 115%; the viability, T/C (compound 1 µM) is 105% and 84% and 101%; the viability, T/C (compound 3.16 µM) was 89.7% and 86.5% and 112%; the viability, T/C (compound 10 µM) is 63% and 58.7% and 63.3%. For the same molecule, the half-maximal inhibitory concentration (IC50) (curve of compound) is above 10000 nM.

Turning to `CC[C@@]1(O)C(=O)OCc2c1cc1n(c2=O)Cc2cc3c(CN(C)C)c(O)ccc3nc2-1`, the viability, T/C runs as follows: (compound 0.000999 µM) 102% and 101% and 87.9%; (compound 0.00316 µM) 98.6% and 112% and 91.4%; (compound 0.00999 µM) 95.8% and 97.9% and 93.1%; (compound 0.0316 µM) 87.9% and 83.3% and 90.2%; (compound 0.0999 µM) 68.3% and 59.5% and 61.7%; (compound 0.316 µM) 39.7% and 35.4% and 42.7%. Moreover, the IC50 (curve of compound) is 209 nM and 154 nM and 203 nM.

For `CCc1c2c(nc3ccc(O)cc13)-c1cc3c(c(=O)n1C2)COC(=O)[C@]3(O)CC`, the viability, T/C runs as follows: (compound 0.000999 µM) 87.3% and 77.7% and 87.8%; (compound 0.00316 µM) 62.7% and 59.7% and 52.4%; (compound 0.00999 µM) 38% and 36% and 36.3%; (compound 0.0316 µM) 24% and 23.4% and 23.9%; (compound 0.0999 µM) 15.9% and 15.4% and 13.3%; (compound 0.316 µM) 8.77% and 9.22% and 10.1%. The concentration for half-maximal inhibition (IC50) (curve of compound) is 5.78 nM and 5.06 nM and 4.18 nM.

For the molecule `CN(C)c1ccc(Nc2c3ccc(NC(=O)CCN4CCCC4)cc3nc3cc(NC(=O)CCN4CCCC4)ccc23)cc1`, the viability, T/C was 98.1% [middle of 12 runs] (compound 0.0316 µM); 101% [middle of 12 runs] (compound 0.1 µM); 94.1% [middle of 12 runs] (compound 0.316 µM); 94.9% [middle of 12 runs] (compound 1 µM); 90.3% [middle of 12 runs] (compound 3.16 µM); 81.3% [middle of 12 runs] (compound 10 µM). In addition, where the note is “compound alone, run of 03/26/2024”, the IC50 is above 10000 nM.

With `COc1cc(C2c3cc4c(cc3C(OC3OC5COC(C)OC5C(O)C3O)C3COC(=O)C23)OCO4)cc(OC)c1O` (stereo not given), the viability, T/C is 94.6% and 85% and 95.3% (compound 0.0316 µM); 88.4% and 97.9% and 91.6% (compound 0.1 µM); 88.8% and 89.8% and 94.8% (compound 0.316 µM); 71.9% and 74.2% and 72.8% (compound 1 µM); 69.3% and 64% and 61.6% (compound 3.16 µM); 41.3% and 38.2% and 35.7% (compound 10 µM). The IC50 (curve of compound) was 6820 nM and 5690 nM and 5030 nM.
